Assay results as given in PubChem BioAssay (NCI).
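Dose response: 5 concentrations. Exposure: 48 h. Format: 96-well plates. Endpoint: linear interpolation; highest concentration if not reached. The concentration for 50% growth inhibition is given as GI50. TGI: total growth inhibition.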

Tests used:
Assay in all cases: NCI anticancer screen, dose series, 48 h
[1] = test system: CAKI-1 renal
[2] = test system: OVCAR-3 ovarian
[3] = test system: NCI-H522 lung
[4] = test system: OVCAR-8 ovarian
[5] = test system: HCT-116 colon
[6] = test system: LOX IMVI melanoma
[7] = test system: NCI-H226 lung
[8] = test system: RPMI-8226 leukemia
[9] = test system: BT-549 breast
[10] = test system: ACHN renal
[11] = test system: SF-268 CNS
[12] = test system: SF-539 CNS
[13] = test system: SW-620 colon
[14] = test system: NCI-H23 lung
[15] = test system: MALME-3M melanoma
[16] = test system: MDA-MB-435
[17] = test system: MCF7 breast
[18] = test system: U251 CNS
[19] = test system: RXF 393 renal
[20] = test system: HCT-15 colon
[21] = test system: SK-MEL-28 melanoma
[22] = test system: HCC-2998 colon
[23] = test system: KM12 colon
[24] = test system: A498 renal
[25] = test system: UACC-257 melanoma
[26] = test system: OVCAR-4 ovarian
[27] = test system: COLO 205 colon
[28] = test system: PC-3 prostate
[29] = test system: DU-145 prostate
[30] = test system: SF-295 CNS
[31] = test system: TK-10 renal
[32] = test system: SNB-19 CNS
[33] = test system: SK-MEL-5 melanoma
[34] = test system: UO-31 renal
[35] = test system: SK-MEL-2 melanoma
[36] = test system: SN12C renal
[37] = test system: 786-0 renal
[38] = test system: A549 NSCLC
[39] = test system: HT29 colon
[40] = test system: NCI-H460 lung
[41] = test system: SK-OV-3 ovarian
[42] = test system: MDA-MB-231 breast
[43] = test system: OVCAR-5 ovarian
[44] = test system: IGROV1 ovarian
[45] = test system: HOP-92 NSCLC
[46] = test system: EKVX NSCLC
[47] = test system: UACC-62 melanoma
[48] = test system: T-47D breast
[49] = test system: M14 melanoma
[50] = test system: SNB-75 CNS
[51] = test system: HOP-62 NSCLC
[52] = test system: CCRF-CEM leukemia
[53] = test system: K-562 leukemia
[54] = test system: NCI/ADR-RES ovarian
[55] = test system: HS 578T breast

SMILES: Cc1ccc(S(=O)(=O)c2ccccc2)cc1
- GI50 [1]: 2.39 µM
- TGI [1]: > 100 µM
- GI50 [2]: 2.32 µM
- TGI [2]: 5.02 µM
- GI50 [3]: 1.82 µM
- TGI [3]: 4.68 µM
- GI50 [4]: 5.77 µM
- TGI [4]: > 100 µM
- GI50 [5]: 3.86 µM
- TGI [5]: > 100 µM
- GI50 [6]: 5.05 µM
- TGI [6]: > 100 µM
- GI50 [7]: 16.6 µM
- TGI [7]: > 100 µM
- GI50 [8]: 3.4 µM
- TGI [8]: 9.87 µM
- GI50 [9]: 8.05 µM
- TGI [9]: > 100 µM
- GI50 [10]: 11.7 µM
- TGI [10]: > 100 µM
- GI50 [11]: 5.82 µM
- TGI [11]: > 100 µM
- GI50 [12]: 2.55 µM
- TGI [12]: 7 µM
- GI50 [13]: 3.2 µM
- TGI [13]: > 100 µM
- GI50 [14]: 6.14 µM
- TGI [14]: > 100 µM
- GI50 [15]: 4.76 µM
- TGI [15]: > 100 µM
- GI50 [16]: 0.834 µM
- TGI [16]: 5.06 µM
- GI50 [17]: 4 µM
- TGI [17]: > 100 µM
- GI50 [18]: 4.32 µM
- TGI [18]: > 100 µM
- GI50 [19]: 2.62 µM
- TGI [19]: 7.54 µM
- GI50 [20]: 4.91 µM
- TGI [20]: > 100 µM
- GI50 [21]: 5.65 µM
- TGI [21]: > 100 µM
- GI50 [22]: 6.82 µM
- TGI [22]: 64.4 µM
- GI50 [23]: 3.45 µM
- TGI [23]: 68.5 µM
- GI50 [24]: 2.8 µM
- TGI [24]: 29.5 µM
- GI50 [25]: 42 µM
- TGI [25]: > 100 µM
- GI50 [26]: 22.2 µM
- TGI [26]: > 100 µM
- GI50 [27]: 2.71 µM
- TGI [27]: 6.3 µM
- GI50 [28]: 4.24 µM
- TGI [28]: > 100 µM
- GI50 [29]: 2.78 µM
- TGI [29]: 7.9 µM
- GI50 [30]: 2.55 µM
- TGI [30]: 9.03 µM
- GI50 [31]: 5.65 µM
- TGI [31]: > 100 µM
- GI50 [32]: 4.73 µM
- TGI [32]: > 100 µM
- GI50 [33]: 4.01 µM
- TGI [33]: > 100 µM
- GI50 [34]: 5.7 µM
- TGI [34]: > 100 µM
- GI50 [35]: 3.01 µM
- TGI [35]: > 100 µM
- GI50 [36]: 5.37 µM
- TGI [36]: > 100 µM
- GI50 [37]: 8.08 µM
- TGI [37]: > 100 µM
- GI50 [38]: 4.27 µM
- TGI [38]: > 100 µM
- GI50 [39]: 2.7 µM
- TGI [39]: 48.9 µM
- GI50 [40]: 3.26 µM
- TGI [40]: 21.1 µM
- GI50 [41]: 3.89 µM
- TGI [41]: 42.2 µM
- GI50 [42]: 3.63 µM
- TGI [42]: > 100 µM
- GI50 [43]: 8.44 µM
- TGI [43]: > 100 µM
- GI50 [44]: 3.97 µM
- TGI [44]: > 100 µM
- GI50 [45]: 2.62 µM
- TGI [45]: 26.2 µM
- GI50 [46]: 3.87 µM
- TGI [46]: > 100 µM
- GI50 [47]: 4.61 µM
- TGI [47]: > 100 µM
- GI50 [48]: 6.43 µM
- TGI [48]: > 100 µM

SMILES: C=CCN1C(=O)c2cccc3c(N4CCOCC4)ccc(c23)C1=O
- GI50 [2]: 0.0118 µM
- TGI [2]: 0.142 µM
- GI50 [3]: 0.206 µM
- TGI [3]: 12.3 µM
- GI50 [4]: 0.229 µM
- TGI [4]: > 100 µM
- GI50 [5]: 0.0961 µM
- TGI [5]: 0.428 µM
- GI50 [6]: 0.023 µM
- TGI [6]: 0.159 µM
- GI50 [7]: 0.167 µM
- TGI [7]: 1.75 µM
- GI50 [9]: 0.0234 µM
- TGI [9]: 0.294 µM
- GI50 [10]: 0.113 µM
- TGI [10]: > 100 µM
- GI50 [11]: 0.104 µM
- TGI [11]: 0.548 µM
- GI50 [12]: 0.0293 µM
- TGI [12]: 0.376 µM
- GI50 [49]: 0.0429 µM
- TGI [49]: > 100 µM
- GI50 [13]: 0.249 µM
- TGI [13]: 12.5 µM
- GI50 [14]: 0.126 µM
- TGI [14]: > 100 µM
- GI50 [16]: 0.0659 µM
- TGI [16]: 22.2 µM
- GI50 [18]: 0.0592 µM
- TGI [18]: 0.606 µM
- GI50 [19]: 0.0162 µM
- TGI [19]: 0.128 µM
- GI50 [21]: 0.0254 µM
- TGI [21]: 0.492 µM
- TGI [50]: 40.6 µM
- GI50 [51]: 0.101 µM
- TGI [51]: > 100 µM
- GI50 [23]: 0.131 µM
- TGI [23]: 60.9 µM
- GI50 [24]: 0.0138 µM
- TGI [24]: 0.0421 µM
- GI50 [25]: 0.0685 µM
- TGI [25]: 0.642 µM
- GI50 [26]: 0.31 µM
- TGI [26]: > 100 µM
- GI50 [28]: 0.128 µM
- TGI [28]: 0.748 µM
- GI50 [29]: 0.0638 µM
- TGI [29]: 13.6 µM
- GI50 [31]: 0.0623 µM
- TGI [31]: 0.791 µM
- GI50 [33]: 0.0274 µM
- TGI [33]: 0.127 µM
- GI50 [34]: 0.0134 µM
- TGI [34]: 0.322 µM
- GI50 [35]: 0.146 µM
- TGI [35]: 0.675 µM
- GI50 [36]: 0.0796 µM
- TGI [36]: > 100 µM
- GI50 [37]: 0.263 µM
- TGI [37]: 32.7 µM
- GI50 [38]: 0.102 µM
- TGI [38]: 0.595 µM
- GI50 [39]: 0.065 µM
- TGI [39]: 11.1 µM
- GI50 [40]: 0.272 µM
- TGI [40]: 12.7 µM
- GI50 [41]: 0.0498 µM
- TGI [41]: 0.667 µM
- GI50 [52]: 0.0452 µM
- TGI [52]: > 100 µM
- GI50 [44]: 0.0114 µM
- TGI [44]: 0.0915 µM
- GI50 [53]: 0.202 µM
- TGI [53]: > 100 µM
- TGI [45]: 0.0416 µM
- GI50 [46]: 0.0405 µM
- TGI [46]: 0.979 µM
- GI50 [47]: 0.188 µM
- TGI [47]: 0.613 µM
- GI50 [48]: 0.0148 µM
- TGI [48]: 11.5 µM

SMILES: N#CC1(Nc2ccc(Br)cc2)CCCC1
- GI50 [1]: 0.529 µM
- TGI [1]: > 100 µM
- GI50 [2]: 96.4 µM
- TGI [2]: > 100 µM
- GI50 [3]: > 100 µM
- TGI [3]: > 100 µM
- GI50 [4]: 26.5 µM
- TGI [4]: > 100 µM
- GI50 [5]: > 100 µM
- TGI [5]: > 100 µM
- GI50 [6]: 0.543 µM
- TGI [6]: > 100 µM
- GI50 [7]: > 100 µM
- TGI [7]: > 100 µM
- GI50 [9]: 22.2 µM
- TGI [9]: > 100 µM
- GI50 [54]: 9.2 µM
- TGI [54]: > 100 µM
- GI50 [11]: > 100 µM
- TGI [11]: > 100 µM
- GI50 [49]: 1.2 µM
- TGI [49]: > 100 µM
- GI50 [13]: 3.22 µM
- TGI [13]: > 100 µM
- GI50 [14]: > 100 µM
- TGI [14]: > 100 µM
- GI50 [15]: 42.6 µM
- TGI [15]: > 100 µM
- GI50 [16]: 3.78 µM
- TGI [16]: > 100 µM
- GI50 [17]: 9.98 µM
- TGI [17]: > 100 µM
- GI50 [18]: 44.5 µM
- TGI [18]: > 100 µM
- GI50 [19]: > 100 µM
- TGI [19]: > 100 µM
- GI50 [21]: > 100 µM
- TGI [21]: > 100 µM
- GI50 [50]: > 100 µM
- TGI [50]: > 100 µM
- GI50 [22]: 8.3 µM
- TGI [22]: > 100 µM
- GI50 [51]: > 100 µM
- TGI [51]: > 100 µM
- GI50 [23]: 1.86 µM
- TGI [23]: > 100 µM
- GI50 [24]: > 100 µM
- TGI [24]: > 100 µM
- GI50 [25]: 31.4 µM
- TGI [25]: > 100 µM
- GI50 [26]: > 100 µM
- TGI [26]: > 100 µM
- GI50 [27]: > 100 µM
- TGI [27]: > 100 µM
- GI50 [29]: > 100 µM
- TGI [29]: > 100 µM
- GI50 [30]: 2.3 µM
- TGI [30]: > 100 µM
- GI50 [31]: > 100 µM
- TGI [31]: > 100 µM
- GI50 [55]: > 100 µM
- TGI [55]: > 100 µM
- GI50 [32]: > 100 µM
- TGI [32]: > 100 µM
- GI50 [33]: 3.05 µM
- TGI [33]: > 100 µM
- GI50 [34]: 4.69 µM
- TGI [34]: > 100 µM
- GI50 [35]: > 100 µM
- TGI [35]: > 100 µM
- GI50 [36]: 12.6 µM
- TGI [36]: > 100 µM
- GI50 [37]: 11.3 µM
- TGI [37]: > 100 µM
- GI50 [38]: 8.15 µM
- TGI [38]: > 100 µM
- GI50 [39]: > 100 µM
- TGI [39]: > 100 µM
- GI50 [40]: 1.99 µM
- TGI [40]: > 100 µM
- GI50 [41]: > 100 µM
- TGI [41]: > 100 µM
- GI50 [42]: 3.16 µM
- TGI [42]: > 100 µM
- GI50 [44]: 75.4 µM
- TGI [44]: > 100 µM
- GI50 [46]: 7.27 µM
- TGI [46]: > 100 µM
- GI50 [47]: 0.427 µM
- TGI [47]: > 100 µM
- GI50 [48]: 9.39 µM
- TGI [48]: > 100 µM
